Data: patent US9540343B2 (Gilead Sciences, Inc., priority 2011, dated 2017)

Key:
in vitro = details: human, uninfected MT-4 cells, CC50 (nM), same protocol as Test A, CellTiter-Glo
In short: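 Cytoprotection read-out: CellTiter-Glo chemiluminescence after 5 days at 37 °C of HIV-IIIb-infected MT-4 cells (m.o.i. 0.003) with compound in 10-point 3-fold dilutions, quadruplicate, 10% FBS. Cytotoxicity (CC50) measured identically without virus.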

HIV-IIIb = experiment: Test A: Antiviral assay in MT4 cells; format: cell-based, HIV-1; details: Human immunodeficiency virus 1, IIIB, MT4, 120 h, read-out: % inhibition at 2 μM, percent inhibition of virus-induced cell killing, from dose response curve at 2 uM drug; MT-4 cells infected with HIV-IIIb, 5 days, CellTiter-Glo

Row | SMILES | CC50 at 5 days (in vitro) | inhibition at 2 µM (HIV-IIIb)
1 | NC(=O)c1cc(-c2cccnc2[C@H](Cc2cccc(F)c2)NC(=O)Cn2nc(C(F)(F)F)c3c2CCSC3)ccc1F [Example 228B, (S)-2-fluoro-5-(2-(2-(3-fluorophenyl)-1-(2-(3-(trifluoromethyl)-6,7-dihydrothiopyrano[4,3-c]pyrazol-1(4H)-yl)acetamido)ethyl)pyridin-3-yl)benzamide] | 23400 nM | 51%
2 | NC(=O)c1cc(-c2cccnc2[C@H](Cc2cccc(F)c2)NC(=O)Cn2nc(C(F)(F)F)c3c2CCCC3)ccc1F [Example 229, (S)-2-fluoro-5-(2-(2-(3-fluorophenyl)-1-(2-(3-(trifluoromethyl)-4,5,6,7-tetrahydro-1H-indazol-1-yl)acetamido)ethyl)pyridin-3-yl)benzamide] | 18600 nM | 95%
3 | O=C(Cn1nc(C(F)F)c2c1C(F)(F)C1CC21)N[C@@H](Cc1cc(F)cc(F)c1)c1ncccc1-c1ccc(OC(F)(F)F)cc1 (stereo partly drawn) [Example 230, 2-(3-(difluoromethyl)-5,5-difluoro-3b,4,4a,5-tetrahydro-1H-cyclopropa[3,4]cyclopenta[1,2-c]pyrazol-1-yl)-N—((S)-2-(3,5-difluorophenyl)-1-(3-(4-(trifluoromethoxy)phenyl)pyridin-2-yl)ethyl)acetamide] | 14000 nM | 66%
4 | O=C(Cn1nc(C(F)F)c2c1C(F)(F)C1CC21)N[C@@H](Cc1cc(F)cc(F)c1)c1ncccc1-c1ccc(OC(F)F)cc1 (stereo partly drawn) [Example 231, N—((S)-1-(3-(4-(difluoromethoxy)phenyl)pyridin-2-yl)-2-(3,5-difluorophenyl)ethyl)-2-(3-(difluoromethyl)-5,5-difluoro-3b,4,4a,5-tetrahydro-1H-cyclopropa[3,4]cyclopenta[1,2-c]pyrazol-1-yl)acetamide] | 43200 nM | 79%
5 | NC(=O)c1cc(-c2cccnc2[C@H](Cc2cc(F)cc(F)c2)NC(=O)Cn2nc(C(F)(F)F)c3c2CCSC3)ccc1F [Example 232, (S)-5-(2-(2-(3,5-difluorophenyl)-1-(2-(3-(trifluoromethyl)-6,7-dihydrothiopyrano[4,3-c]pyrazol-1(4H)-yl)acetamido)ethyl)pyridin-3-yl)-2-fluorobenzamide] | 18700 nM | 61%
6 | NC(=O)c1cc(-c2cccnc2[C@H](Cc2cc(F)cc(F)c2)NC(=O)Cn2nc(C(F)F)c3c2C(=O)C2CC32)ccc1F (stereo partly drawn) [Example 233B, 5-(2-((1S)-1-(2-(3-(difluoromethyl)-5-oxo-3b,4,4a,5-tetrahydro-1H-cyclopropa[3,4]cyclopenta[1,2-c]pyrazol-1-yl)acetamido)-2-(3,5-difluorophenyl)ethyl)pyridin-3-yl)-2-fluorobenzamide] | 32200 nM | 5%
7 | CC1Cc2c(C(F)(F)F)nn(CC(=O)N[C@@H](Cc3cc(F)cc(F)c3)c3ncccc3-c3ccc(F)c(C(N)=O)c3)c2C1 (stereo partly drawn) [Example 234, 5-(2-((1S)-2-(3,5-difluorophenyl)-1-(2-(5-methyl-3-(trifluoromethyl)-5,6-dihydrocyclopenta[c]pyrazol-1(4H)-yl)acetamido)ethyl)pyridin-3-yl)-2-fluorobenzamide] | 15900 nM | 73%
8 | CN1Cc2c(C(F)(F)F)nn(CC(=O)N[C@@H](Cc3cc(F)cc(F)c3)c3ncccc3-c3ccc(F)c(C(N)=O)c3)c2C1 [Example 235, (S)-5-(2-(2-(3,5-difluorophenyl)-1-(2-(5-methyl-3-(trifluoromethyl)-5,6-dihydropyrrolo[3,4-c]pyrazol-1(4H)-yl)acetamido)ethyl)pyridin-3-yl)-2-fluorobenzamide] | > 53200 nM | 12%
9 | CC(C)c1cc(C(F)(F)F)n(CC(=O)N[C@@H](Cc2cc(F)cc(F)c2)c2ncccc2-c2ccc(F)c(C(N)=O)c2)n1 [Example 236D, (S)-5-(2-(2-(3,5-difluorophenyl)-1-(2-(3-isopropyl-5-(trifluoromethyl)-1H-pyrazol-1-yl)acetamido)ethyl)pyridin-3-yl)-2-fluorobenzamide] | 25600 nM | 15%
10 | NC(=O)c1cc(-c2cccnc2[C@H](Cc2cc(F)cc(F)c2)NC(=O)Cn2nc(C(F)(F)F)c3c2CC(=O)C3)ccc1F [Example 237, (S)-5-(2-(2-(3,5-difluorophenyl)-1-(2-(5-oxo-3-(trifluoromethyl)-5,6-dihydrocyclopenta[c]pyrazol-1(4H)-yl)acetamido)ethyl)pyridin-3-yl)-2-fluorobenzamide] | 38200 nM | 1%
11 | CC(C)(C)c1cc(C(F)(F)F)n(CC(=O)N[C@@H](Cc2cc(F)cc(F)c2)c2ncccc2-c2ccc(F)c(C(N)=O)c2)n1 [Example 238E, (S)-5-(2-(1-(2-(3-(tert-butyl)-5-(trifluoromethyl)-1H-pyrazol-1-yl)acetamido)-2-(3,5-difluorophenyl)ethyl)pyridin-3-yl)-2-fluorobenzamide] | 17000 nM | 12%
12 | NC(=O)c1cc(-c2cccnc2[C@H](Cc2cc(F)cc(F)c2)NC(=O)Cn2nc(C(F)(F)F)c3c2CC(F)(F)C3)ccc1F [Example 239, (S)-5-(2-(1-(2-(5,5-difluoro-3-(trifluoromethyl)-5,6-dihydrocyclopenta[c]pyrazol-1(4H)-yl)acetamido)-2-(3,5-difluorophenyl)ethyl)pyridin-3-yl)-2-fluorobenzamide] | 19400 nM | 18%
13 | NC(=O)c1cc(-c2cccnc2[C@H](Cc2cc(F)cc(F)c2)NC(=O)Cn2nc(C(F)F)c3c2CC(F)(F)C3)ccc1F [Example 241D, (S)-5-(2-(1-(2-(3-(difluoromethyl)-5,5-difluoro-5,6-dihydrocyclopenta[c]pyrazol-1(4H)-yl)acetamido)-2-(3,5-difluorophenyl)ethyl)pyridin-3-yl)-2-fluorobenzamide] | 25400 nM | 78%
14 | N#Cc1nn(CC(=O)N[C@@H](Cc2cc(F)cc(F)c2)c2ncccc2-c2ccc(F)c(C(N)=O)c2)c2c1C1CC1C2 (stereo partly drawn) [Example 242D, 5-(2-((1S)-1-(2-(3-cyano-3b,4,4a,5-tetrahydro-1H-cyclopropa[3,4]cyclopenta[1,2-c]pyrazol-1-yl)acetamido)-2-(3,5-difluorophenyl)ethyl)pyridin-3-yl)-2-fluorobenzamide] | 25500 nM | 97%
15 | NC(=O)c1cc(-c2cccnc2[C@H](Cc2cc(F)cc(F)c2)NC(=O)Cn2nc3c(c2C(F)F)C2CC2C3O)ccc1F (stereo partly drawn) [Example 243, 5-(2-((1S)-1-(2-(3-(difluoromethyl)-5-hydroxy-3b,4,4a,5-tetrahydro-2H-cyclopropa[3,4]cyclopenta[1,2-c]pyrazol-2-yl)acetamido)-2-(3,5-difluorophenyl)ethyl)pyridin-3-yl)-2-fluorobenzamide] | > 53200 nM | 33%
16 | CC(C)(C)c1cc(C(F)(F)F)nn1CC(=O)N[C@@H](Cc1cc(F)cc(F)c1)c1ncccc1-c1ccc(F)c(C(N)=O)c1 [Example 244B, (S)-5-(2-(1-(2-(5-(tert-butyl)-3-(trifluoromethyl)-1H-pyrazol-1-yl)acetamido)-2-(3,5-difluorophenyl)ethyl)pyridin-3-yl)-2-fluorobenzamide] | 16400 nM | 0%
17 | NC(=O)c1cccc(-c2cccnc2[C@H](Cc2cc(F)cc(Cl)c2)NC(=O)Cc2c[nH]c3ccc(O)cc23)c1 [Example 245F, (S)-3-(2-(2-(3-chloro-5-fluorophenyl)-1-(2-(5-hydroxy-1H-indol-3-yl)acetamido)ethyl)pyridin-3-yl)benzamide] | 30300 nM | 71%
18 | NC(=O)c1cc(-c2cccnc2[C@H](Cc2cc(F)cc(F)c2)NC(=O)CC2C(=O)Nc3cc(F)ccc32)ccc1F (stereo partly drawn) [Example 246, 5-(2-((1S)-2-(3,5-difluorophenyl)-1-(2-(6-fluoro-2-oxoindolin-3-yl)acetamido)ethyl)pyridin-3-yl)-2-fluorobenzamide] | 47900 nM | 1%
19 | CCOc1ccc(-c2cccnc2[C@H](Cc2cc(F)cc(F)c2)NC(=O)Cn2nc(C(F)F)c3c2C(F)(F)C2CC32)cc1 (stereo partly drawn) [Example 247, 2-(3-(difluoromethyl)-5,5-difluoro-3b,4,4a,5-tetrahydro-1H-cyclopropa[3,4]cyclopenta[1,2-c]pyrazol-1-yl)-N—((S)-2-(3,5-difluorophenyl)-1-(3-(4-ethoxyphenyl)pyridin-2-yl)ethyl)acetamide] | 26300 nM | 39%
20 | NC(=O)c1cc(-c2cccnc2[C@H](Cc2cc(F)cc(F)c2)NC(=O)Cn2nc(C(F)(F)F)c3c2CNC3)ccc1F [Example 251, (S)-5-(2-(2-(3,5-difluorophenyl)-1-(2-(3-(trifluoromethyl)-5,6-dihydropyrrolo[3,4-c]pyrazol-1(4H)-yl)acetamido)ethyl)pyridin-3-yl)-2-fluorobenzamide] | > 53200 nM | 1%
21 | CC(C)c1cc(C(F)(F)F)nn1CC(=O)N[C@@H](Cc1cc(F)cc(F)c1)c1ncccc1-c1ccc(F)c(C(N)=O)c1 [Example 252, (S)-5-(2-(2-(3,5-difluorophenyl)-1-(2-(5-isopropyl-3-(trifluoromethyl)-1H-pyrazol-1-yl)acetamido)ethyl)pyridin-3-yl)-2-fluorobenzamide] | 19200 nM | 18%
22 | NC(=O)c1cc(-c2cccnc2[C@H](Cc2cccc(F)c2)NC(=O)CC2C(=O)Nc3ccc(F)cc32)ccc1F (stereo partly drawn) [Example 253, 2-fluoro-5-(2-((1S)-1-(2-(5-fluoro-2-oxoindolin-3-yl)acetamido)-2-(3-fluorophenyl)ethyl)pyridin-3-yl)benzamide] | > 53200 nM | 27%
